Drawing on US7816353B2 (Exelixis, Inc., priority 2003, dated 2010), this text covers IC50 for 33 molecules.

Each structure is given as a SMILES string.

This assay deals with T1, p70S6K (Homo sapiens, UniProt P23443, T412E).
T1 construct: human p70S6 kinase domain residues 1-421, containing a T412E mutation; made in house
Kind of assay: p70S6 Kinase Assay (Luciferase-Coupled Chemiluminescent Kinase assay, LCCA). Type of assay: biochemical. The conditions noted are these: human p70S6 kinase domain residues 1-421, T412E; 5 μM ATP; read-out: p70S6K IC50. A digest of the protocol: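 Luciferase-coupled chemiluminescence measured percent ATP remaining after the 2 h kinase reaction at ambient temperature, with ATP near the kinase's KM. Ten inhibitor concentrations were tested. IC50 was obtained from a Hill-equation fit.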

T1 sequence (P23443 1-421 T412E): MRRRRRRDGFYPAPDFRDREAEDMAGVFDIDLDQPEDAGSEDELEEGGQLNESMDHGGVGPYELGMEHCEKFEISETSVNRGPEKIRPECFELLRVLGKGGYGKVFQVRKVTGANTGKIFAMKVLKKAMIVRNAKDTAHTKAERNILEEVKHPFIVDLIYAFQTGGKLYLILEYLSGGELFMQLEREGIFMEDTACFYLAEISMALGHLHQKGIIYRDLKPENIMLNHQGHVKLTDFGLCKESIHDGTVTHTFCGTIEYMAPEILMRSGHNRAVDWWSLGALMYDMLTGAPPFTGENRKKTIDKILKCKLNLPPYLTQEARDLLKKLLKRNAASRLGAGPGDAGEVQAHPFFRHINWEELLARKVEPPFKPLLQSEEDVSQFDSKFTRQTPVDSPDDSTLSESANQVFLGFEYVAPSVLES

Consider `CNc1nc(N)nc(SCC(=O)Nc2cccc(C(F)(F)F)c2)c1C=O` [Example 45, 2-{[2-amino-5-formyl-6-(methylamino)pyrimidin-4-yl]thio}-N-[3-(trifluoromethyl)phenyl]acetamide], for which the IC50 lay in the range of 0.05 to 0.5 µM. Then `CSc1nc(N)nc(N[C@@H](CCCCN)C(=O)Nc2cccc(C(F)(F)F)c2)c1C#N` [Example 114, N^2-[2-amino-5-cyano-6-(methylthio)pyrimidin-4-yl]-N-[3-(trifluoromethyl)phenyl]-L-lysinamide], with > 2 µM; and `COc1nc(N)nc(N[C@@H](CN2CCOCC2)C(=O)Nc2cccc(C(F)(F)F)c2)c1C#N` [Example 192, N~2~-[2-amino-5-cyano-6-(methyloxy)pyrimidin-4-yl]-3-morpholin-4-yl-N-[3-(trifluoromethyl)phenyl]-L-alaninamide], with > 2 µM; and `CSc1nc(N)nc(N[C@@H](CCCN/C(N)=N/[N+](=O)[O-])C(=O)Nc2cccc(C(F)(F)F)c2)c1C#N` [Example 111, N^2-[2-amino-5-cyano-6-(methylthio)pyrimidin-4-yl]-N^5-[imino(nitroamino)methyl]-N-[3-(trifluoromethyl)phenyl]-L-omithinamide], with > 2 µM.

`Nc1nc(SCC(=O)Nc2cccc(C(F)(F)F)c2)c(C=O)c(Sc2ccccc2)n1` [Example 51, 2-{[2-amino-5-formyl-6-(phenylthio)pyrimidin-4-yl]thio}-N-[3-(trifluoromethyl)phenyl]acetamide]: the IC50 is 0.05 to 0.5 µM. Regarding `CSc1nc(N)nc(N(C)CC(=O)Nc2cccc(C)c2)c1C#N` [Example 109, N^2-[2-amino-5-cyano-6-(methylthio)pyrimidin-4-yl]-N^2-methyl-N-(3-methylphenyl)glycinamide], the half-maximal inhibitory concentration (IC50) was > 2 µM. Under `CSc1nc(N)nc(N(C)N(C)C(=O)Nc2cccc(C(F)(F)F)c2)c1C#N` [Example 93, 2-[2-amino-5-cyano-6-(methylthio)pyrimidin-4-yl]-1,2-dimethyl-N-[3-(trifluoromethyl)phenyl]hydrazinecarboxamide] stands > 2 µM. Under `COc1ccc(C(F)(F)F)cc1NC(=O)[C@H](C)Nc1nc(N)nc(SC)c1C#N` [Example 79, N^2-[2-amino-5-cyano-6-(methylthio)pyrimidin-4-yl]-N-[2-(methyloxy)-5-(trifluoromethyl)phenyl]-L-alaninmide] stands > 2 µM. Under `CCOc1nc(N)nc(N(C)[C@@H](CCCCNC(=O)OCc2ccccc2)C(=O)Nc2cccc(C(F)(F)F)c2)c1C#N` [Example 162, N~2~-[2-amino-5-cyano-6-(ethyloxy)pyrimidin-4-yl]-N~2~-methyl-N~6~-{[(phenylmethyl)oxy]carbonyl}-N-[3-(trifluoromethyl)phenyl]-L-lysinamide] stands > 2 µM; under `CCOc1nc(N)nc(N[C@@H](C)C(=O)Nc2cc(OCCN(C)C)cc(C(F)(F)F)c2)c1C#N` [Example 180, N~2~-[2-amino-5-cyano-6-(ethyloxy)pyrimidin-4-yl]-N-[3-{[2-(dimethylamino)ethyl]oxy}-5-(trifluoromethyl)phenyl]-L-alaninamide], > 2 µM.

As to `CSc1nc(N)nc(N[C@@H](CCCN2CCOCC2)C(=O)Nc2cccc(C(F)(F)F)c2)c1C#N` [Example 143, N~2~-[2-amino-5-cyano-6-(methylthio)pyrimidin-4-yl]-5-morpholin-4-yl-N-[3-(trifluoromethyl)phenyl]-L-norvalinamide], the IC50 lay in the range of 0.05 to 0.5 µM.

With `COC(=O)c1cc(NC(=O)[C@H](C)Nc2nc(N)nc(OC)c2C#N)cc(C(F)(F)F)c1` [Example 189, methyl 3-({N-[2-amino-5-cyano-6-(methyloxy)pyrimidin-4-yl]-L-alanyl}amino)-5-(trifluoromethyl)benzoate], the IC50 is > 2 µM.

Consider `C[C@H](Nc1nc(N)nc(O)c1C#N)C(=O)Nc1cccc(C(F)(F)F)c1` [Example 99, N^2-(2-amino-5-cyano-6-hydroxypyrimidin-4-yl)-N-[3-(trifluoromethyl)phenyl]-L-alaninamide], for which the IC50 is > 2 µM. Under `CCOC(=O)CN(NC(=O)Nc1cccc(C(F)(F)F)c1)c1nc(N)nc(SC)c1C#N` [Example 95, ethyl[1-[2-amino-5-cyano-6-(methylthio)pyrimidin-4-yl]-2-({[3-(trifluoromethyl)phenyl]amino}carbonyl)hydrazino]acetate] stands > 2 µM; under `C[C@H](Nc1nc(N)nc(S(C)(=O)=O)c1C#N)C(=O)Nc1cccc(C(F)(F)F)c1` [Example 75, N^2-[2-amino-5-cyano-6-(methylsulfonyl)pyrimidin-4-yl]-N-[3-(trifluoromethyl)phenyl]-L-alaninamide], > 2 µM; under `CCN(CC)CCNc1cc(NC(=O)[C@H](C)Nc2nc(N)nc(SC)c2C#N)cc(C(F)(F)F)c1` [Example 106, N^2-[2-amino-5-cyano-6-(methylthio)pyrimidin-4-yl]-N-[3-{[2-(diethylamino)ethyl]amino}-5-(trifluoromethyl)phenyl]-L-alaninamide], > 2 µM. Under `CSc1nc(N)nc(NC(C)(C)C(=O)Nc2cccc(C(F)(F)F)c2)c1C#N` [Example 81, N^2-[2-amino-5-cyano-6-(methylthio)pyrimidin-4-yl]-2-methyl-N-[3-(trifluoromethyl)phenyl]alaninamide] stands > 2 µM.

For `CCOc1nc(N)nc(N[C@@H](C)C(=O)Nc2cccc(C(F)(F)F)c2)c1C#N` [Example 88, N^2-[2-amino-5-cyano-6-(ethyloxy)pyrimidin-4-yl]-N-[3-(trifluoromethyl)phenyl]-L-alaninamide], the IC50 is > 2 µM. Under `CSc1nc(N)nc(N2CCC[C@H]2C(=O)Nc2cccc(C(F)(F)F)c2)c1C#N` [Example 67, (S)-1-[2-amino-5-cyano-6-(methythio)pyrimidin-4-yl]-N-[3-(trifluoromethyl)phenyl]prolinamide] stands 0.5 to 2 µM; under `CCOc1nc(N)nc(N[C@@H](CCC[N+](C)(C)C)C(=O)Nc2cccc(C(F)(F)F)c2)c1C#N` [Example 169, N-((4S)-4-{[2-amino-5-cyano-6-(ethyloxy)pyrimidin-4-yl]amino}-5-oxo-5-{[3-(trifluoromethyl)phenyl]amino}pentyl)-N,N-dimethylmethanaminium], > 2 µM.

As to `CSc1nc(N)nc(N(C)NC(=O)Nc2cccc(C(F)(F)F)c2)c1C#N` [Example 96, 2-[2-amino-5-cyano-6-(methylthio)pyrimidin-4-yl]-2-methyl-N-[3-(trifluoromethyl)phenyl]hydrazinecaboxamide], the IC50 was > 2 µM. Then `CCOc1nc(N)nc(N(C)[C@@H](C)C(=O)Nc2cccc(Br)c2)c1C#N` [Example 174, N~2~-[2-amino-5-cyano-6-(ethyloxy)pyrimidin-4-yl]-N-(3-bromophenyl)-N~2~-methyl-L-alaninamide], with > 2 µM. Under `C[C@H](Nc1nc(N)nc(OCCN(C)C)c1C#N)C(=O)Nc1cccc(C(F)(F)F)c1` [Example 102, N^2-(2-amino-5-cyano-6-{[2-(dimethylamino)ethyl]oxy}pyrimidin-4-yl)-N-[3-(trifluoromethyl)phenyl]-L-alaninamide] stands > 2 µM; under `C[C@H](Nc1nc(N)nc([S+](C)[O-])c1C#N)C(=O)Nc1cccc(C(F)(F)F)c1` (stereo partly drawn) [Example 74, N^2-[2-amino-5-cyano-6-(methylsulfinyl)pyrimidin-4-yl]-N-[3-(trifluoromethyl)phenyl]-L-alaninamide], > 2 µM; under `CSc1nc(N)nc(NCCC[C@H](N)C(=O)Nc2cccc(C(F)(F)F)c2)c1C#N` [Example 155, N~5~-[2-amino-5-cyano-6-(methylthio)pyrimidin-4-yl]-N-[3-(trifluoromethyl)phenyl]-L-ornithinamide], > 2 µM. Under `CSc1nc(N)nc(NC2(C(=O)Nc3cccc(C(F)(F)F)c3)CC2)c1C#N` [Example 73, 1-{[2-amino-5-cyno-6-(methylthio)pyrimidin-4-yl]amino}-N-[3-(trifluoromethyl)phenyl]cyclopropanecarboxamide] stands > 2 µM. For `CSc1nc(N)nc(N[C@@H](CCC(=O)OCc2ccccc2)C(=O)Nc2cccc(C(F)(F)F)c2)c1C#N` [Example 182, phenylmethyl N~2~-[2-amino-5-cyano-6-(methylthio)pyrimidin-4-yl]-N-[3-(trifluoromethyl)phenyl]-L-alpha-glutaminate], the IC50 is > 2 µM. As for `CSc1nc(N)nc(OCC(=O)Nc2cccc(C(F)(F)F)c2)n1` [Example 47, 2-{[4-amino-6-(methylthio)-1,3,5-triazin-2-yl]oxy}-N-[3-(trifluoromethyl)phenyl]acetamide], the IC50 was 0.05 to 0.5 µM.

In the case of `CCOc1nc(N)nc(N[C@@H](CN(C)C)C(=O)Nc2cccc(C(F)(F)F)c2)c1C#N` [Example 176, N~2~-[2-amino-5-cyano-6-(ethyloxy)pyrimidin-4-yl]-3-(dimethylamino)-N-[3-(trifluoromethyl)phenyl]-L-alaninamide], the IC50 was > 2 µM. Under `CSc1nc(N)nc(OC2(C(=O)Nc3cccc(C(F)(F)F)c3)CC2)c1C#N` [Example 69, 1-{[2-amino-5-cyano-6-(methylthio)pyrimidin-4-yl]oxy}-N-[3-(trifluoromethyl)phenyl]cyclopropanecarboxamide] stands 0.5 to 2 µM; under `CCOc1nc(N)nc(N(C)[C@@H](C)C(=O)Nc2cccc(C(F)(F)F)c2)c1C#N` [Example 121, N^2-[2-amino-5-cyano-6-(ethyloxy)pyrimidin-4-yl]-N^2-methyl-N-[3-(trifluoromethyl)phenyl]-L-alaninamide], > 2 µM. Under `CSc1nc(N(C)C)nc(NCC(=O)Nc2cccc(C(F)(F)F)c2)c1C#N` [Example 71, N^2-[5-cyano-2-(dimethylamino)-6-(methylthio)pyrimidin-4-yl]-N-[3-(trifluoromethyl)phenyl]glycinamide] stands > 2 µM; under `CCOc1nc(N)nc(N[C@@H](Cc2ccc(O)cc2)C(=O)Nc2cccc(C(F)(F)F)c2)c1C#N` [Example 154, Nalpha-[2-amino-5-cyano-6-(ethyloxy)pyrimidin-4-yl]-N-[3-(trifluoromethyl)phenyl]-L-tyrosinamide], > 2 µM.

By IC50 is commonly meant the concentration needed to halve the response being measured.
